Assay results published in PubChem BioAssay (NCI).
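1) Cells in 96-well plates. 2) Compound, 48 h, 5 concentrations. 3) Linear interpolation between surrounding doses. 4) Unreached endpoint = highest concentration. TGI denotes the concentration required for complete inhibition of growth.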

What was measured:
Experiment in all cases: inhibition of tumour cell growth, NCI panel, 48 h
T-47D breast = tested on: T-47D breast
NCI-H226 lung = tested on: NCI-H226 lung
MALME-3M melanoma = tested on: MALME-3M melanoma
SK-MEL-2 melanoma = tested on: SK-MEL-2 melanoma
MDA-N = tested on: MDA-N
MCF7 breast = tested on: MCF7 breast
MDA-MB-435 = tested on: MDA-MB-435
DU-145 prostate = tested on: DU-145 prostate
HS 578T breast = tested on: HS 578T breast
SNB-75 CNS = tested on: SNB-75 CNS
SR leukemia = tested on: SR leukemia
HCT-116 colon = tested on: HCT-116 colon
COLO 205 colon = tested on: COLO 205 colon
SF-268 CNS = tested on: SF-268 CNS
SK-MEL-5 melanoma = tested on: SK-MEL-5 melanoma
SN12C renal = tested on: SN12C renal
HT29 colon = tested on: HT29 colon
IGROV1 ovarian = tested on: IGROV1 ovarian
K-562 leukemia = tested on: K-562 leukemia
PC-3 prostate = tested on: PC-3 prostate
KM12 colon = tested on: KM12 colon
UACC-257 melanoma = tested on: UACC-257 melanoma
OVCAR-8 ovarian = tested on: OVCAR-8 ovarian
CAKI-1 renal = tested on: CAKI-1 renal
OVCAR-3 ovarian = tested on: OVCAR-3 ovarian
MOLT-4 leukemia = tested on: MOLT-4 leukemia
SF-539 CNS = tested on: SF-539 CNS
RXF 393 renal = tested on: RXF 393 renal
HOP-92 NSCLC = tested on: HOP-92 NSCLC
SF-295 CNS = tested on: SF-295 CNS
ACHN renal = tested on: ACHN renal
MDA-MB-231 breast = tested on: MDA-MB-231 breast
NCI-H522 lung = tested on: NCI-H522 lung
NCI/ADR-RES ovarian = tested on: NCI/ADR-RES ovarian
RPMI-8226 leukemia = tested on: RPMI-8226 leukemia
NCI-H460 lung = tested on: NCI-H460 lung
SK-OV-3 ovarian = tested on: SK-OV-3 ovarian
CCRF-CEM leukemia = tested on: CCRF-CEM leukemia
TK-10 renal = tested on: TK-10 renal
M14 melanoma = tested on: M14 melanoma
HCC-2998 colon = tested on: HCC-2998 colon
U251 CNS = tested on: U251 CNS
OVCAR-4 ovarian = tested on: OVCAR-4 ovarian
SNB-19 CNS = tested on: SNB-19 CNS
LOX IMVI melanoma = tested on: LOX IMVI melanoma
BT-549 breast = tested on: BT-549 breast
UACC-62 melanoma = tested on: UACC-62 melanoma
HCT-15 colon = tested on: HCT-15 colon
SW-620 colon = tested on: SW-620 colon
OVCAR-5 ovarian = tested on: OVCAR-5 ovarian
A549 NSCLC = tested on: A549 NSCLC
786-0 renal = tested on: 786-0 renal
UO-31 renal = tested on: UO-31 renal
HOP-62 NSCLC = tested on: HOP-62 NSCLC
EKVX NSCLC = tested on: EKVX NSCLC
SK-MEL-28 melanoma = tested on: SK-MEL-28 melanoma
NCI-H23 lung = tested on: NCI-H23 lung
A498 renal = tested on: A498 renal
HL-60(TB) leukemia = tested on: HL-60(TB) leukemia

In the case of `C#CCn1ncc2c(SC)ncnc21`, the TGI (T-47D breast) is reported as > 100 µM, the TGI (NCI-H226 lung) is reported as > 100 µM and the TGI (MALME-3M melanoma) is reported as > 100 µM. The TGI (SK-MEL-2 melanoma) was > 100 µM, the TGI (MDA-N) was > 100 µM and the TGI (MCF7 breast) was > 100 µM. The TGI (MDA-MB-435) was > 100 µM, the TGI (DU-145 prostate) was > 100 µM and the TGI (HS 578T breast) was > 100 µM. For the same molecule, the TGI (SNB-75 CNS) was 97.8 µM, the TGI (SR leukemia) was > 100 µM and the TGI (HCT-116 colon) was > 100 µM. The TGI (COLO 205 colon) was > 100 µM, the TGI (SF-268 CNS) was > 100 µM and the TGI (SK-MEL-5 melanoma) was > 100 µM. For the same molecule, the TGI (SN12C renal) was > 100 µM, the TGI (HT29 colon) was > 100 µM and the TGI (IGROV1 ovarian) was > 100 µM. The TGI (K-562 leukemia) was > 100 µM, the TGI (PC-3 prostate) was > 100 µM and the TGI (KM12 colon) was > 100 µM. The TGI (UACC-257 melanoma) was > 100 µM, the TGI (OVCAR-8 ovarian) was > 100 µM and the TGI (CAKI-1 renal) was > 100 µM. The TGI (OVCAR-3 ovarian) was > 100 µM, the TGI (MOLT-4 leukemia) was > 100 µM and the TGI (SF-539 CNS) was > 100 µM. The TGI (RXF 393 renal) was > 100 µM, the TGI (HOP-92 NSCLC) was > 100 µM and the TGI (SF-295 CNS) was > 100 µM. The TGI (ACHN renal) was > 100 µM, the TGI (MDA-MB-231 breast) was > 100 µM and the TGI (NCI-H522 lung) was > 100 µM. For the same molecule, the TGI (NCI/ADR-RES ovarian) was > 100 µM, the TGI (RPMI-8226 leukemia) was > 100 µM and the TGI (NCI-H460 lung) was > 100 µM. The TGI (SK-OV-3 ovarian) was > 100 µM, the TGI (CCRF-CEM leukemia) was > 100 µM and the TGI (TK-10 renal) was > 100 µM. For the same molecule, the TGI (M14 melanoma) was > 100 µM, the TGI (HCC-2998 colon) was > 100 µM and the TGI (U251 CNS) was > 100 µM. For the same molecule, the TGI (OVCAR-4 ovarian) was > 100 µM, the TGI (SNB-19 CNS) was > 100 µM and the TGI (LOX IMVI melanoma) was > 100 µM. The TGI (BT-549 breast) was > 100 µM, the TGI (UACC-62 melanoma) was > 100 µM and the TGI (HCT-15 colon) was > 100 µM. For the same molecule, the TGI (SW-620 colon) was > 100 µM, the TGI (OVCAR-5 ovarian) was > 100 µM and the TGI (A549 NSCLC) was > 100 µM. The TGI (786-0 renal) was > 100 µM, the TGI (UO-31 renal) was > 100 µM and the TGI (HOP-62 NSCLC) was > 100 µM. The TGI (EKVX NSCLC) was > 100 µM, the TGI (SK-MEL-28 melanoma) was > 100 µM and the TGI (NCI-H23 lung) was > 100 µM. For the same molecule, the TGI (A498 renal) was > 100 µM.

In the case of `OC1(c2ccc(Cl)cc2)c2c(ccc3c2OCO3)C2=NCCN21` (stereo unspecified), the TGI (T-47D breast) is reported as > 100 µM, the TGI (MALME-3M melanoma) is reported as 21.2 µM and the TGI (SK-MEL-2 melanoma) is reported as 43.4 µM. The TGI (MDA-N) was 87.4 µM, the TGI (MCF7 breast) was > 100 µM and the TGI (MDA-MB-435) was > 100 µM. For the same molecule, the TGI (DU-145 prostate) was > 100 µM, the TGI (HS 578T breast) was 76.7 µM and the TGI (SNB-75 CNS) was 59 µM. For the same molecule, the TGI (SR leukemia) was 53 µM, the TGI (HCT-116 colon) was > 100 µM and the TGI (COLO 205 colon) was 33 µM. The TGI (SF-268 CNS) was > 100 µM, the TGI (SK-MEL-5 melanoma) was 32.1 µM and the TGI (SN12C renal) was > 100 µM. For the same molecule, the TGI (HT29 colon) was 91.5 µM, the TGI (IGROV1 ovarian) was 54.9 µM and the TGI (K-562 leukemia) was 70.6 µM. The TGI (PC-3 prostate) was > 100 µM, the TGI (KM12 colon) was 43.9 µM and the TGI (UACC-257 melanoma) was 37.2 µM. For the same molecule, the TGI (OVCAR-8 ovarian) was > 100 µM, the TGI (CAKI-1 renal) was > 100 µM and the TGI (OVCAR-3 ovarian) was > 100 µM. For the same molecule, the TGI (MOLT-4 leukemia) was > 100 µM, the TGI (SF-539 CNS) was > 100 µM and the TGI (RXF 393 renal) was 86 µM. The TGI (HOP-92 NSCLC) was 73.5 µM, the TGI (SF-295 CNS) was > 100 µM and the TGI (ACHN renal) was > 100 µM. For the same molecule, the TGI (MDA-MB-231 breast) was 91.8 µM, the TGI (NCI/ADR-RES ovarian) was > 100 µM and the TGI (RPMI-8226 leukemia) was 42.5 µM. The TGI (NCI-H460 lung) was > 100 µM, the TGI (SK-OV-3 ovarian) was > 100 µM and the TGI (CCRF-CEM leukemia) was > 100 µM. For the same molecule, the TGI (TK-10 renal) was 45.7 µM, the TGI (M14 melanoma) was 30.8 µM and the TGI (U251 CNS) was > 100 µM. The TGI (HL-60(TB) leukemia) was > 100 µM, the TGI (OVCAR-4 ovarian) was > 100 µM and the TGI (SNB-19 CNS) was > 100 µM. The TGI (LOX IMVI melanoma) was > 100 µM, the TGI (BT-549 breast) was > 100 µM and the TGI (UACC-62 melanoma) was 37 µM. For the same molecule, the TGI (HCT-15 colon) was > 100 µM, the TGI (SW-620 colon) was > 100 µM and the TGI (OVCAR-5 ovarian) was > 100 µM. The TGI (A549 NSCLC) was > 100 µM, the TGI (786-0 renal) was > 100 µM and the TGI (UO-31 renal) was > 100 µM. For the same molecule, the TGI (HOP-62 NSCLC) was > 100 µM, the TGI (EKVX NSCLC) was > 100 µM and the TGI (SK-MEL-28 melanoma) was 34.6 µM. For the same molecule, the TGI (NCI-H23 lung) was > 100 µM and the TGI (A498 renal) was 48.2 µM.

For `COC(=O)C1CCOC(C)N1C(=O)OC(C)(C)C` (stereo unspecified), the TGI (T-47D breast) was > 100 µM, the TGI (NCI-H226 lung) was > 100 µM and the TGI (MALME-3M melanoma) was > 100 µM. For the same molecule, the TGI (SK-MEL-2 melanoma) was > 100 µM, the TGI (MDA-N) was > 100 µM and the TGI (MCF7 breast) was > 100 µM. The TGI (MDA-MB-435) was > 100 µM, the TGI (DU-145 prostate) was > 100 µM and the TGI (HS 578T breast) was > 100 µM. For the same molecule, the TGI (SNB-75 CNS) was > 100 µM, the TGI (SR leukemia) was > 100 µM and the TGI (HCT-116 colon) was > 100 µM. The TGI (COLO 205 colon) was > 100 µM, the TGI (SF-268 CNS) was > 100 µM and the TGI (SK-MEL-5 melanoma) was > 100 µM. The TGI (SN12C renal) was > 100 µM, the TGI (HT29 colon) was > 100 µM and the TGI (IGROV1 ovarian) was > 100 µM. The TGI (K-562 leukemia) was > 100 µM, the TGI (PC-3 prostate) was > 100 µM and the TGI (KM12 colon) was > 100 µM. The TGI (UACC-257 melanoma) was > 100 µM, the TGI (OVCAR-8 ovarian) was > 100 µM and the TGI (CAKI-1 renal) was > 100 µM. The TGI (OVCAR-3 ovarian) was > 100 µM, the TGI (MOLT-4 leukemia) was > 100 µM and the TGI (SF-539 CNS) was > 100 µM. The TGI (RXF 393 renal) was > 100 µM, the TGI (SF-295 CNS) was > 100 µM and the TGI (ACHN renal) was > 100 µM. For the same molecule, the TGI (MDA-MB-231 breast) was > 100 µM, the TGI (NCI-H522 lung) was > 100 µM and the TGI (NCI/ADR-RES ovarian) was > 100 µM. The TGI (RPMI-8226 leukemia) was > 100 µM, the TGI (NCI-H460 lung) was > 100 µM and the TGI (SK-OV-3 ovarian) was > 100 µM. For the same molecule, the TGI (CCRF-CEM leukemia) was > 100 µM, the TGI (TK-10 renal) was > 100 µM and the TGI (M14 melanoma) was > 100 µM. For the same molecule, the TGI (HCC-2998 colon) was > 100 µM, the TGI (U251 CNS) was > 100 µM and the TGI (HL-60(TB) leukemia) was > 100 µM. For the same molecule, the TGI (OVCAR-4 ovarian) was > 100 µM, the TGI (SNB-19 CNS) was > 100 µM and the TGI (LOX IMVI melanoma) was > 100 µM. The TGI (BT-549 breast) was > 100 µM, the TGI (UACC-62 melanoma) was > 100 µM and the TGI (HCT-15 colon) was > 100 µM. The TGI (SW-620 colon) was > 100 µM, the TGI (OVCAR-5 ovarian) was > 100 µM and the TGI (A549 NSCLC) was > 100 µM. For the same molecule, the TGI (786-0 renal) was > 100 µM, the TGI (UO-31 renal) was > 100 µM and the TGI (HOP-62 NSCLC) was > 100 µM. The TGI (EKVX NSCLC) was > 100 µM, the TGI (SK-MEL-28 melanoma) was > 100 µM and the TGI (NCI-H23 lung) was > 100 µM.
